Test results published in US7129213B2, “Tripeptides and tripeptide derivatives for the treatment of neurodegenerative diseases” (Neurotell AG, priority 2002, dated 2006).
Read-outs that look alike come from different tables or passages of the source. Values belong to the compound of their own block, whether it stands above or below them.

How the values were obtained:
[1] = literature values; cited from earlier work
[2] = Metabolic stability in rat hepatocytes; format: in vitro ADME; settings: male, Wistar, freshly isolated rat hepatocytes in suspension, 10^6 cells/ml, analysed over 24 h, read-out: T½ (converted)
Source text: Hepatocytes from adult male Wistar rats (IFFA Credo, L'Arbresle, France) were isolated by an in situ liver perfusion using collagenase (purchased from Sigma (St. Louis, Mo., U.S.A), according to a procedure described by Seglen (Preparation of isolated rat liver cell, Methods Cell Biol. 13, 29–83, 1976) and modified by Williams et al. (Rat hepatocyte primary culture. III. Improved dissociation and attachment techniques and the enhancement of survival by culture medium, in vitro 13: 809–817, 1977). After estimation of cell viability by the peripheral refractoriness of intact cells in phase contrast microscopy and the trypan blue test, freshly isolated hepatocytes were washed in basal William's medium E (WME) supplemented with 10% (v/v) fetal calf serum, 70 μM cortisol, 2 mM L-glutamine, 10 mM HEPES buffer, and 4 mM NaOH. […]
Each substance of each concentration will be analysed 10 times during 24 h (1 h, 2 h, 4 h, 6 h, 8 h, 10 h, 12 h, 16 h, 20 h, 24 h).

PAMPA classification, predicted absorption after peroral application (PAMPA): medium to highly absorbed
Compound: CC[C@H](C)[C@H](NC(=O)[C@H]([C@@H](C)CC)N(CC)CC)C(=O)N1CCC[C@H]1C(N)=O [N,N-Diethyl-Ile-Ile-ProNH2, N,N-diethyl-isoleucyl-isoleucyl-prolineamide]

PAMPA classification, predicted absorption after peroral application (PAMPA): medium to highly absorbed
Compound: CCNC(=O)[C@@H]1CCCN1C(=O)[C@H](Cc1ccccc1)NC(=O)[C@H]([C@@H](C)CC)N(CC)CC [N,N-Diethyl-Ile-Phe-ProNHEt, N,N-diethyl-isoleucyl-phenylalanyl-L-proline ethylamide]

Pampa Flux (%) Mean ± SEM (PAMPA, 16 h, 500 μM, pH 7): 0%
Compound: CC[N+](C)(C)Cc1ccccc1Br [Bretylium, reference compound]

Pampa Flux (%) Mean ± SEM (PAMPA, 16 h, 500 μM, pH 7): 72 ± 2%
Compound: O=c1ccc2ccccc2o1 [Coumarin, reference compound]
flux rates published by Kansy et al. [1]: 66%

PAMPA classification, predicted absorption after peroral application (PAMPA): medium to highly absorbed
Compound: CC[C@H](C)[C@H](NC(=O)CN(CC)CC)C(=O)N1CCC[C@H]1C(N)=O [N,N-Diethyl-Gly-Ile-ProNH2]

Continued, compound first:

Compound: C[C@]12CCC(=O)C=C1CC[C@@H]1[C@@H]2[C@@H](O)C[C@@]2(C)[C@H]1CC[C@]2(O)C(=O)CO [Hydrocortisone]
flux rates published by Kansy et al. [1]: 52%

Compound: CC[C@H](C)[C@H](NC(C)C)C(=O)N[C@H](C(=O)N1CCC[C@H]1C(N)=O)[C@@H](C)CC [N-Isopropyl-Ile-Ile-ProNH2]
half-life [2]: 2.6 h
PAMPA classification, predicted absorption after peroral application (PAMPA): medium to highly absorbed

Compound: thyreoliberin [TRH, reference compound]
Pampa Flux (%) Mean ± SEM (500 μM in Tris-buffer pH 7,4, diffusion time 16 h): <10%
PAMPA classification, predicted absorption after peroral application (classification by flux rate): weakly absorbed
